Numbered stars: 1 amine (or outer) side, 2 acyl side, 3 side chain; on linkers, the order of the positions; unused ones are H or OH. Square brackets hold non-standard residues; d marks the D form. Peptide text beside a SMILES is read from it. * marks the point of attachment. X20 = O=C(CCCCCO[C@@H]1O[C@H](CO)[C@@H](O)[C@H](O)[C@H]1N[*:1])[*:2]; NHOctadecyl = CCCCCCCCCCCCCCCCCCN*; hPhe = N[C@@H](CCc1ccccc1)C(=O)O; Morpholide = C1CN(*)CCO1; Octanoyl = CCCCCCCC(=O)*; Piperidide = C1CCN(*)CC1; X7 = O=C(CO*)OCc1ccccc1; Cbz = O=C(OCc1ccccc1)*; NHDecyl = CCCCCCCCCCN*; PhAc = O=C(Cc1ccccc1)*; ODecyl = CCCCCCCCCCO*; OBn = c1ccc(CO*)cc1; X5 = CCCCCCCCCCCCO*; Ahx = NCCCCCC(=O)O; X6 = O=C(O)CO*; NHBu = CCCCN*
Molecular target: VLA-4 (Homo sapiens, UniProt P05556+P13612)
Assay: In vitro binding inhibition of 51Cr-labeled Jurkat cells to solid phase-bound CS-1 compound (SEQ ID NO:1)
Assay type: cell-based
Set-up: inflammatory cells that contain the VLA-4 receptor [Jurkat cells; host or cells: Jurkat (human T lymphoblastic line)
Conditions: not given
Procedure, shortened: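 51Cr-labeled human Jurkat cells were preincubated with compound 30 min at about 22° C, then allowed to bind to wells coated with CS-1 peptide or CS-1-OVA for 30 min at 37° C. After washing, bound cells were lysed with SDS and counted. IC50 is the concentration halving binding, normalized to SEQ ID NO: 3.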

Sequence of VLA-4 (P13612 34-1032): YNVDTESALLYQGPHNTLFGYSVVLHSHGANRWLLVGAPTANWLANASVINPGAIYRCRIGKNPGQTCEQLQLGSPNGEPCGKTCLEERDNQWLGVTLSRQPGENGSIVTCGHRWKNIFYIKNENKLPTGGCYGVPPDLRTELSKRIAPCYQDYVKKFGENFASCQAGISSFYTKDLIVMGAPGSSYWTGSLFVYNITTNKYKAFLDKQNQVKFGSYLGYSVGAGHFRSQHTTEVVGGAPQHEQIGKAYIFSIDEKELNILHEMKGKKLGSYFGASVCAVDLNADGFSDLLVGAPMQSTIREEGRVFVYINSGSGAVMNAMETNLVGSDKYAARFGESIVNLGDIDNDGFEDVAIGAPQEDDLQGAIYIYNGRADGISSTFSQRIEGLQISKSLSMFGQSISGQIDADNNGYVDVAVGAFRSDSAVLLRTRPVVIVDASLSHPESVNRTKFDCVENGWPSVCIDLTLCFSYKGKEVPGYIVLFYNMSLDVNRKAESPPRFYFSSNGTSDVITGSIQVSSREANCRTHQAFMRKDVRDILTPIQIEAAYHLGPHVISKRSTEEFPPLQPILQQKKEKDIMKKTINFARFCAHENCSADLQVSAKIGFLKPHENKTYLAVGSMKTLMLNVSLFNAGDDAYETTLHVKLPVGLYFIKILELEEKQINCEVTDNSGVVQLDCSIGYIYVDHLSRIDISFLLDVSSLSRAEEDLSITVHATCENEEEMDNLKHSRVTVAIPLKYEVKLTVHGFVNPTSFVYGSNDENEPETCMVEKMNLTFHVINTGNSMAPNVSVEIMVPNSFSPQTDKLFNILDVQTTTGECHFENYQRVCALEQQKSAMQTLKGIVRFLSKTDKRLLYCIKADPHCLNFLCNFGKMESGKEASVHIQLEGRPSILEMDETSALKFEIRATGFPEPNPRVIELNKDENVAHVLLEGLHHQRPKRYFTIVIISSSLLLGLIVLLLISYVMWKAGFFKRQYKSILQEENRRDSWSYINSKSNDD
Sequence of VLA-4 (P05556 21-798): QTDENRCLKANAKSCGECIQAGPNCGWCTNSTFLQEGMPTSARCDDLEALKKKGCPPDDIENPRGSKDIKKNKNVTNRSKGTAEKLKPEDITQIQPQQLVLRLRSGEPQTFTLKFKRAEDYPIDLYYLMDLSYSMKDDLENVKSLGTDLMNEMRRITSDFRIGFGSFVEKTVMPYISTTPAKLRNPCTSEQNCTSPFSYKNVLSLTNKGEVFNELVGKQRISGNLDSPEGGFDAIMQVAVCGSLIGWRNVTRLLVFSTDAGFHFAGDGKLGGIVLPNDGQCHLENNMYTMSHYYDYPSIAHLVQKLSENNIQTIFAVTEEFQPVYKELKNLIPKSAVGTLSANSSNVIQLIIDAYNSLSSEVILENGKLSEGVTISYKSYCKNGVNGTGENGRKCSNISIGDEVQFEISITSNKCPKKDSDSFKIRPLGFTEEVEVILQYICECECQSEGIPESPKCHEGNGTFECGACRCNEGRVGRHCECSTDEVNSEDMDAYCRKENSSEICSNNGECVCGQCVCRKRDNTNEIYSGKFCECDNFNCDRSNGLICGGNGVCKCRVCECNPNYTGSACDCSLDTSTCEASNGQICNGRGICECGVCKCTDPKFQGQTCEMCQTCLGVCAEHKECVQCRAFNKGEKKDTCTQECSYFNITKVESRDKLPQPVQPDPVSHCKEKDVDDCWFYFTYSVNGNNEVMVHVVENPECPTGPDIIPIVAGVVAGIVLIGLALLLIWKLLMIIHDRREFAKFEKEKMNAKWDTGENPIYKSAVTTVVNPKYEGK

Row | SMILES | Relative Potency
1 | CC(C)C[C@H](NC(=O)c1ccncc1)C(=O)N[C@@H](CC(=O)O)C(=O)N[C@@H](Cc1ccc(O)cc1)C(=O)N1CCCCC1 [1045.01] | 23.8
2 | CC(C)C[C@@H](C(=O)N[C@@H](CC(=O)O)C(=O)N[C@@H](Cc1ccccc1)C(=O)N1CCCCC1)N1C(=O)N[C@H](c2ccccc2)C1=O [1047.01] | 34.4
3 | CC(C)C[C@@H](C(=O)N[C@@H](CC(=O)O)C(=O)N[C@@H](Cc1ccccc1)C(=O)N1CCCCC1)N1C(=O)N[C@@H](c2ccccc2)C1=O [1047.02] | 3.13
4 | CC(C)C[C@@H](C(=O)N1C(=O)N([C@@H](Cc2ccccc2)C(=O)N2CCCCC2)C(=O)[C@@H]1CC(=O)O)N1C(=O)c2ccccc2C1=O [1047.03] | 0
5 | CC(C)C[C@@H]1NC(=O)N([C@@H](CC(=O)O)C(=O)N[C@@H](Cc2ccccc2)C(=O)N2CCCCC2)C1=O [1047.05] | 12.5
6 | CC(C)C[C@@H](C(=O)N[C@@H](CC(=O)O)C(=O)N[C@@H](Cc1ccccc1)C(=O)N1CCCCC1)N1C(=O)N[C@@H](Cc2ccccc2)C1=O [1047.06] | 6.26
7 | CC(C)C[C@H](N)C(=O)N[C@@H](CC(=O)O)C(=O)N[C@@H](Cc1ccccc1)C(=O)N1CCCCC1 [1047.09] (H-Leu-Asp-Phe-Piperidide) | 0.01
8 | CC(C)C[C@H](NC(=O)OCc1ccccc1)C(=O)N[C@@H](CC(=O)O)C(=O)N[C@@H](Cc1ccccc1)C(=O)N1CCC[C@@H]1C(N)=O [1056.01] (Cbz-LDF[dP]-NH2) | 34.4
9 | COc1ccc(CCCC(=O)N[C@@H](CC(=O)O)C(=O)N[C@@H](Cc2ccccc2)C(=O)N2CCC[C@@H]2C(N)=O)cc1OC [1056.02] | 0
10 | CC(=O)[C@H]1C[C@@H](CC(=O)N[C@@H](CC(=O)O)C(=O)N[C@@H](Cc2ccccc2)C(=O)N2CCC[C@@H]2C(N)=O)C1(C)C [1056.03] | 0
11 | NC(=O)[C@H]1CCCN1C(=O)[C@H](Cc1ccccc1)NC(=O)[C@H](CC(=O)O)NC(=O)CCCCc1ccccc1 [1056.04] | .2
12 | NC(=O)[C@H]1CCCN1C(=O)[C@H](Cc1ccccc1)NC(=O)[C@H](CC(=O)O)NC(=O)c1cc2cc(O)ccc2cc1O [1056.05] | 0
13 | CC(C)[C@@H]1CC[C@@H](C)C[C@H]1OCC(=O)N[C@@H](CC(=O)O)C(=O)N[C@@H](Cc1ccccc1)C(=O)N1CCC[C@@H]1C(N)=O [1056.06] | 0
14 | NC(=O)[C@H]1CCCN1C(=O)[C@H](Cc1ccccc1)NC(=O)[C@H](CC(=O)O)NC(=O)CCCCCC1CCCCC1 [1056.07] | 0
15 | NC(=O)[C@H]1CCCN1C(=O)[C@H](Cc1ccccc1)NC(=O)[C@H](CC(=O)O)NC(=O)CCCCC1CCCCC1 [1056.08] | 0
16 | CC(C)=CCCC(C)CC(=O)N[C@@H](CC(=O)O)C(=O)N[C@@H](Cc1ccccc1)C(=O)N1CCC[C@@H]1C(N)=O (stereo partly shown) [1056.10] | 0
17 | NC(=O)[C@H]1CCCN1C(=O)[C@H](Cc1ccccc1)NC(=O)[C@H](CC(=O)O)NC(=O)CCCCC[N+](=O)[O-] [1056.11] | 0
18 | CCCCCCCC(=O)N[C@@H](CC(=O)O)C(=O)N[C@@H](Cc1ccccc1)C(=O)N1CCC[C@@H]1C(N)=O [1056.12] (Octanoyl-Asp-Phe-[dP]-NH2) | 0
19 | NC(=O)[C@H]1CCCN1C(=O)[C@H](Cc1ccccc1)NC(=O)[C@H](CC(=O)O)NC(=O)CC12CC3CC(CC(C3)C1)C2 [1056.13] | 0
20 | CC(C)CC(CCCc1ccccc1)C(=O)N[C@@H](CC(=O)O)C(=O)N[C@@H](Cc1ccccc1)C(=O)N1CCC[C@@H]1C(N)=O (stereo partly shown) [1056.14] | .25
21 | CC(=O)N[C@H]1[C@H](OCCCCCC(=O)N[C@@H](Cc2ccccc2)C(=O)N[C@@H](CC(C)C)C(=O)N[C@@H](CC(=O)O)C(=O)N[C@@H](Cc2ccccc2)C(=O)N2CCCCC2)O[C@H](CO)[C@@H](O)[C@@H]1O [1063.01] (Ac-[X20]FLDF-Piperidide) | 40.7

Same assay, conditions: binding inhibition potency relative to standard compound of SEQ ID NO:3 = 1 (normalized IC50); about one-tenth or less assigned zero

Row | SMILES | Relative Potency
22 | CC(C)C[C@@H](CN[C@@H](CC(=O)O)C(=O)N[C@@H](Cc1ccccc1)C(=O)N1CCCCC1)NC(=O)Cc1ccccc1 [1041.01] | 0
23 | NC(=O)[C@H]1CCCN1C(=O)[C@H](Cc1ccccc1)NC(=O)[C@H](CC(=O)O)NC(=O)[C@H](CS)NC(=O)Cc1ccccc1 [1042.22] (PhAc-CDF[dP]-NH2) | 46.9
24 | CC(C)C[C@H](NC(=O)Cc1ccccc1)C(=O)N[C@@H](CC(=O)O)C(=O)N[C@@H](CO)C(=O)N1CCC[C@@H]1C(N)=O [1042.23] (PhAc-LDS[dP]-NH2) | 33.2
25 | CC(C)C[C@H](NC(=O)Cc1ccccc1)C(=O)N[C@@H](CC(=O)O)C(=O)N[C@@H]1CCCCNC1=O [1043.01] | 17.2
26 | CC(C)C[C@H](NC(=O)Cc1ccccc1)C(=O)N[C@@H](CC(=O)O)C(=O)NC1CCCCNC1=O (stereo partly shown) [1043.02] | 26.8
27 | CC(C)C[C@H](NC(=O)Cc1ccccc1)C(=O)N[C@@H](CC(=O)O)C(=O)N[C@@H](Cc1ccc(O)cc1)C(=O)N1CCOCC1 [1045.02] (PhAc-Leu-Asp-Tyr-Morpholide) | 313
28 | CC(C)C[C@H](NC(=O)Cc1ccccc1)C(=O)N[C@@H](CC(=O)O)C(=O)N1C(=O)N(Cc2ccccc2)C(=O)[C@H]1Cc1ccccc1 [1047.07] | .38
29 | CC(C)C[C@H](NC(=O)Cc1ccccc1)C(=O)N[C@@H](CC(=O)O)C(=O)N1C(=O)N(Cc2ccccc2)C(=O)[C@@H]1Cc1ccccc1 [1047.08] | .38
30 | CC(C)C[C@H](NC(=O)Cc1ccccc1)C(=O)N[C@@H](CC(=O)O)C(=O)N[C@@H](Cc1ccccc1)C(=O)N1CCNCC1 [1051.02] | 507
31 | CCCCNC(=O)[C@H](Cc1ccccc1)NC(=O)[C@H](CC(=O)O)NC(=O)[C@H](CC(C)C)NC(=O)Cc1ccccc1 [1051.03] (PhAc-Leu-Asp-Phe-NHBu) | 2.82
32 | CC(C)C[C@H](NC(=O)Cc1ccccc1)C(=O)N[C@@H](CC(=O)O)C(=O)N[C@@H](Cc1ccccc1)C(=O)NCC(=O)N1CCOCC1 [1051.04] (PhAc-LDFG-Morpholide) | 3.13
33 | CC(C)C[C@H](NC(=O)Cc1ccccc1)C(=O)N[C@@H](CC(=O)O)C(=O)N[C@@H](Cc1ccccc1)C(=O)NCCCO [1051.05] | 25
34 | NC(=O)[C@H]1CCCN1C(=O)[C@H](Cc1ccccc1)NC(=O)[C@H](CC(=O)O)NC(=O)CCCCC1CCSS1 (stereo partly shown) [1056.09] | 1.1
35 | O=C(O)CC(C(=O)N[C@@H](Cc1ccccc1)C(=O)N1CCCCC1)N1CC[C@H](NC(=O)Cc2ccccc2)C1=O (stereo partly shown) [1057.01] | .88
36 | CC(C)C[C@H](NC(=O)Cc1ccccc1)C(=O)N[C@@H](CC(=O)O)C(=O)N[C@H]1CCN(C2CCCCC2)C1=O [1057.02] | 6.57
37 | CC(C)C[C@H](NC(=O)Cc1ccccc1)C(=O)N[C@@H](CC(=O)O)C(=O)N[C@@H]1CCN(C2CCCCC2)C1=O [1057.03] | 3.44
38 | COc1ccccc1N1CC[C@H](NC(=O)[C@H](CC(=O)O)NC(=O)[C@H](CC(C)C)NC(=O)Cc2ccccc2)C1=O [1057.04] | 3.13
39 | CC(C)C[C@H](NC(=O)Cc1ccccc1)C(=O)N[C@@H](CC(=O)O)C(=O)NC1CCCCN(CC(N)=O)C1=O (stereo partly shown) [1057.06] | 97
40 | CC(C)C[C@H](NC(=O)Cc1ccccc1)C(=O)N[C@@H](CC(=O)O)C(=O)N[C@@H](CCc1ccccc1)C(=O)N1CCC[C@@H]1C(N)=O [1062.03] (PhAc-LD[hPhe][dP]-NH2) | 93.9

Same assay, conditions: relative to SEQ ID NO:3 = 1; potency before the prodrug compound is enzymatically converted to an active form

Row | SMILES | Relative Potency (prodrug compound)
41 | CC(C)C[C@H](NC(=O)Cc1ccccc1)C(=O)N[C@@H](CC(=O)OCC(=O)OCc1ccccc1)C(=O)N[C@@H](Cc1ccccc1)C(=O)N1CCC[C@@H]1C(N)=O [1067.01] (PhAc-LD(X7)F[dP]-NH2) | .97
42 | CC(C)C[C@H](NC(=O)Cc1ccccc1)C(=O)N[C@@H](CC(=O)OCC(=O)O)C(=O)N[C@@H](Cc1ccccc1)C(=O)N1CCC[C@@H]1C(N)=O [1067.02] (PhAc-LD(X6)F[dP]-NH2) | .81
43 | CCCCCCCCCCCCCCCCCCNC(=O)CCCCCNC(=O)[C@@H]1CCCN1C(=O)[C@H](Cc1ccccc1)NC(=O)[C@H](CC(=O)O)NC(=O)[C@H](CC(C)C)NC(=O)Cc1ccccc1 [1068.01] (PhAc-LDFP[Ahx]-NHOctadecyl) | .91
44 | CCCCCCCCCCNC(=O)[C@@H]1CCCN1C(=O)[C@H](Cc1ccccc1)NC(=O)[C@H](CC(=O)O)NC(=O)[C@H](CC(C)C)NC(=O)Cc1ccccc1 [1068.04] (PhAc-LDFP-NHDecyl) | 2.13
45 | CCCCCCCCCCCCCCCCCC(=O)OC1CCN(C(=O)[C@H](Cc2ccccc2)NC(=O)[C@H](CC(=O)O)NC(=O)[C@H](CC(C)C)NC(=O)Cc2ccccc2)CC1 [1068.05] | .63
46 | CCCCCCCCCC(=O)OC1CCN(C(=O)[C@H](Cc2ccccc2)NC(=O)[C@H](CC(=O)O)NC(=O)[C@H](CC(C)C)NC(=O)Cc2ccccc2)CC1 [1068.06] | .63
47 | CC(C)C[C@H](NC(=O)Cc1ccccc1)C(=O)N[C@@H](CC(=O)OCc1ccccc1)C(=O)N[C@@H](Cc1ccccc1)C(=O)N1CCC[C@@H]1C(N)=O [1068.07] (PhAc-LD(OBn)F[dP]-NH2) | 0
48 | CCCCCCCCCCOC(=O)C[C@H](NC(=O)[C@H](CC(C)C)NC(=O)Cc1ccccc1)C(=O)N[C@@H](Cc1ccccc1)C(=O)N1CCC[C@@H]1C(N)=O [1068.09] (PhAc-LD(ODecyl)F[dP]-NH2) | 0
49 | CCCCCCCCCCCCOC(=O)C[C@H](NC(=O)[C@H](CC(C)C)NC(=O)Cc1ccccc1)C(=O)N[C@@H](Cc1ccccc1)C(=O)N1CCC[C@@H]1C(N)=O [1068.10] (PhAc-LD(X5)F[dP]-NH2) | 0

Source: US5770573A, “CS-1 peptidomimetics, compositions and methods of using the same” (Cytel Corporation, priority 1995, dated 1998)
